Results: ChEMBL document CHEMBL1136466, “KMI-008, a novel beta-secretase inhibitor containing a hydroxymethylcarbonyl isostere as a transition-state mimic: design and synthesis of substrate-based octapeptides” (Bioorg Med Chem Lett, 2003)
Starred links: 1 amine or outer side, 2 acyl side, 3 side chain; linkers in the order of their positions; H or OH if unused. Non-standard residues stand in square brackets, D forms with d. Residues, ends and D or L forms follow the SMILES beside them. β3hPhe(2R-OH) = O=C([C@H](O)[C@H](Cc1ccccc1)N[*:1])[*:2]; X1 = CC(C)C[C@H](N[*:1])[C@@H](O)C(=O)[*:2]

Experiments:
[1] = molecular target: T1, Beta-secretase 1 (Homo sapiens, UniProt P56817); assay: Inhibition of beta-secretase 1 (BACE) was determined at the concentration of 2 uM
[2] = molecular target: T1, Beta-secretase 1; assay: Inhibitory activity against Beta-secretase 1 was determined

T1 sequence (P56817 whole entry): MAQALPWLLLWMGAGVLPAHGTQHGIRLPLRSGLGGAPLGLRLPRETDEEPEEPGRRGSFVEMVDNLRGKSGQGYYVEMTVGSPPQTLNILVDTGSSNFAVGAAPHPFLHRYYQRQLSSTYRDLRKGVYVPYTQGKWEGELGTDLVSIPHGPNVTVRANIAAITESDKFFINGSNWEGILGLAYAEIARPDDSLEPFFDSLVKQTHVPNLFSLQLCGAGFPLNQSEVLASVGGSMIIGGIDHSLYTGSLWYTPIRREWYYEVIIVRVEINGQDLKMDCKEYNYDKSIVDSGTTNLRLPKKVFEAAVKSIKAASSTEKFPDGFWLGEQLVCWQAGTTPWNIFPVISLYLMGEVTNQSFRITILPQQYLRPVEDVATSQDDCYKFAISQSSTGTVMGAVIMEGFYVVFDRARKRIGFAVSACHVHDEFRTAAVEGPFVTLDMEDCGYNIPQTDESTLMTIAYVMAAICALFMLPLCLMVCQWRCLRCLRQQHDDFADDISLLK

inhibition [1] [%] | IC50 [2] [nM] | Compound
30 | – | CC(C)[C@H](NC(=O)[C@@H](N)CCC(=O)O)C(=O)N[C@@H](CCC(=O)O)C(=O)N[C@@H](Cc1ccccc1)[C@@H](O)C(=O)N[C@@H](CC(=O)O)C(=O)N[C@@H](C)C(=O)N[C@@H](CCC(=O)O)C(=O)N[C@@H](Cc1ccccc1)C(=O)O (H-EVE[β3hPhe(2R-OH)]DAEF-OH)
< 20 | – | CSCC[C@H](NC(=O)[C@@H](N)CCC(=O)O)C(=O)N[C@@H](CC(C)C)C(=O)N[C@@H](Cc1ccccc1)[C@@H](O)C(=O)N[C@@H](CC(=O)O)C(=O)N[C@@H](C)C(=O)N[C@@H](CCC(=O)O)C(=O)N[C@@H](Cc1ccccc1)C(=O)O (H-EML[β3hPhe(2R-OH)]DAEF-OH)
30 | – | CC(C)C[C@H](NC(=O)[C@@H](NC(=O)[C@@H](N)CCC(=O)O)C(C)C)C(=O)N[C@@H](Cc1ccccc1)[C@@H](O)C(=O)N[C@@H](C)C(=O)N[C@H](C(=O)N[C@@H](CCC(=O)O)C(=O)N[C@@H](Cc1ccccc1)C(=O)O)C(C)C (H-EVL[β3hPhe(2R-OH)]AVEF-OH)
< 20 | – | CC(C)C[C@H](NC(=O)[C@H](CC(C)C)NC(=O)[C@@H](N)CCC(=O)O)C(=O)N[C@@H](Cc1ccccc1)[C@@H](O)C(=O)N[C@@H](CC(=O)O)C(=O)N[C@@H](C)C(=O)N[C@@H](CCC(=O)O)C(=O)N[C@@H](Cc1ccccc1)C(=O)O (H-ELL[β3hPhe(2R-OH)]DAEF-OH)
41 | – | CC(C)C[C@H](NC(=O)[C@H](C)NC(=O)[C@H](O)[C@H](Cc1ccccc1)NC(=O)[C@H](CC(C)C)NC(=O)[C@@H](NC(=O)[C@@H](N)CCC(=O)O)C(C)C)C(=O)N[C@@H](CCC(=O)O)C(=O)N[C@@H](Cc1ccccc1)C(=O)O (H-EVL[β3hPhe(2R-OH)]ALEF-OH)
42 | – | CSCC[C@H](NC(=O)[C@@H](NC(=O)[C@@H](N)CCC(=O)O)C(C)C)C(=O)N[C@@H](Cc1ccccc1)[C@@H](O)C(=O)N[C@@H](CC(=O)O)C(=O)N[C@@H](C)C(=O)N[C@@H](CCC(=O)O)C(=O)N[C@@H](Cc1ccccc1)C(=O)O (H-EVM[β3hPhe(2R-OH)]DAEF-OH)
< 20 | – | CC(C)[C@H](NC(=O)[C@@H](N)CCC(=O)O)C(=O)N[C@@H](CCCCN)C(=O)N[C@@H](Cc1ccccc1)[C@@H](O)C(=O)N[C@@H](CC(=O)O)C(=O)N[C@@H](C)C(=O)N[C@@H](CCC(=O)O)C(=O)N[C@@H](Cc1ccccc1)C(=O)O (H-EVK[β3hPhe(2R-OH)]DAEF-OH)
33 | – | CC(C)C[C@H](NC(=O)[C@@H](NC(=O)[C@@H](N)CCC(=O)O)C(C)C)C(=O)N[C@H](Cc1ccccc1)[C@@H](O)C(=O)N[C@@H](CCC(N)=O)C(=O)N[C@@H](C)C(=O)N[C@@H](CCC(=O)O)C(=O)N[C@@H](Cc1ccccc1)C(=O)O
25 | – | CC(C)[C@H](NC(=O)[C@@H](N)CCC(=O)O)C(=O)N[C@@H](CC(=O)O)C(=O)N[C@@H](Cc1ccccc1)[C@@H](O)C(=O)N[C@@H](CC(=O)O)C(=O)N[C@@H](C)C(=O)N[C@@H](CCC(=O)O)C(=O)N[C@@H](Cc1ccccc1)C(=O)O (H-EVD[β3hPhe(2R-OH)]DAEF-OH)
< 20 | – | CC(C)C[C@H](NC(=O)[C@@H](NC(=O)[C@@H](N)CCC(=O)O)C(C)C)C(=O)N[C@H](Cc1ccccc1)[C@@H](O)C(=O)N[C@@H](C)C(=O)N[C@@H](C)C(=O)N[C@@H](CCC(=O)O)C(=O)N[C@@H](Cc1ccccc1)C(=O)O
36 | – | CC(C)[C@H](NC(=O)[C@@H](N)CCC(=O)O)C(=O)N[C@@H](CCC(N)=O)C(=O)N[C@@H](Cc1ccccc1)[C@@H](O)C(=O)N[C@@H](CC(=O)O)C(=O)N[C@@H](C)C(=O)N[C@@H](CCC(=O)O)C(=O)N[C@@H](Cc1ccccc1)C(=O)O (H-EVQ[β3hPhe(2R-OH)]DAEF-OH)
34 | – | CC(C)C[C@H](NC(=O)[C@@H](NC(=O)[C@@H](N)CCC(=O)O)C(C)C)C(=O)N[C@H](Cc1ccccc1)[C@@H](O)C(=O)N1CSC(C)(C)C1C(=O)N[C@@H](C)C(=O)N[C@@H](CCC(=O)O)C(=O)N[C@@H](Cc1ccccc1)C(=O)O (some centres not stated)
41 | – | CC(C)C[C@H](NC(=O)[C@@H](NC(=O)[C@@H](N)CCC(=O)O)C(C)C)C(=O)N[C@@H](Cc1ccccc1)[C@@H](O)C(=O)N[C@@H](CCC(N)=O)C(=O)N[C@@H](C)C(=O)N[C@@H](CCC(=O)O)C(=O)N[C@@H](Cc1ccccc1)C(=O)O
56 | – | CC(C)C[C@H](NC(=O)[C@@H](NC(=O)[C@@H](N)CCC(=O)O)C(C)C)C(=O)N[C@@H](Cc1ccccc1)[C@@H](O)C(=O)N[C@@H](CC(=O)O)C(=O)N[C@@H](C)C(=O)N[C@@H](CCC(N)=O)C(=O)N[C@@H](Cc1ccccc1)C(=O)O (H-EVL[β3hPhe(2R-OH)]DAQF-OH)
< 20 | – | CC(C)C[C@H](NC(=O)[C@H](CC(N)=O)NC(=O)[C@@H](NC(=O)[C@@H](N)CCC(=O)O)C(C)C)[C@@H](O)C(=O)N[C@@H](CC(=O)O)C(=O)N[C@@H](C)C(=O)N[C@@H](CCC(=O)O)C(=O)N[C@@H](Cc1ccccc1)C(=O)O (H-EVN[X1]DAEF-OH)
22 | – | CC(C)C[C@H](NC(=O)[C@@H](NC(=O)[C@@H](N)CCC(=O)O)C(C)C)C(=O)N[C@H](Cc1ccccc1)[C@@H](O)C(=O)N[C@@H](CC(N)=O)C(=O)N[C@@H](C)C(=O)N[C@@H](CCC(=O)O)C(=O)N[C@@H](Cc1ccccc1)C(=O)O

inhibition [1] [%] | IC50 [2] [nM] | Compound
54 | – | CC(C)C[C@H](NC(=O)[C@@H](NC(=O)[C@@H](N)CCC(=O)O)C(C)C)C(=O)N[C@@H](Cc1ccccc1)[C@@H](O)C(=O)N[C@@H](CC(N)=O)C(=O)N[C@@H](C)C(=O)N[C@@H](CCC(=O)O)C(=O)N[C@@H](Cc1ccccc1)C(=O)O
24 | – | CC(C)[C@H](NC(=O)[C@@H](N)CCC(=O)O)C(=O)N[C@@H](CC(N)=O)C(=O)N[C@@H](Cc1ccccc1)[C@@H](O)C(=O)N[C@@H](CC(=O)O)C(=O)N[C@@H](C)C(=O)N[C@@H](CCC(=O)O)C(=O)N[C@@H](Cc1ccccc1)C(=O)O (H-EVN[β3hPhe(2R-OH)]DAEF-OH)
57 | – | CC(C)C[C@H](NC(=O)[C@H](C)NC(=O)[C@H](CC(=O)O)NC(=O)[C@H](O)[C@H](Cc1ccccc1)NC(=O)[C@H](CC(C)C)NC(=O)[C@@H](NC(=O)[C@@H](N)CCC(=O)O)C(C)C)C(=O)N[C@@H](Cc1ccccc1)C(=O)O (H-EVL[β3hPhe(2R-OH)]DALF-OH)
57 | – | CC(C)C[C@H](NC(=O)[C@@H](NC(=O)[C@@H](N)CCC(=O)O)C(C)C)C(=O)N[C@@H](Cc1ccccc1)[C@@H](O)C(=O)N[C@@H](CC(=O)O)C(=O)N[C@@H](C)C(=O)N[C@H](C(=O)N[C@@H](Cc1ccccc1)C(=O)O)C(C)C (H-EVL[β3hPhe(2R-OH)]DAVF-OH)
34 | – | CC(C)C[C@H](NC(=O)[C@@H](NC(=O)[C@@H](N)CCC(=O)O)C(C)C)C(=O)N[C@@H](Cc1ccccc1)[C@@H](O)C(=O)N1CSC(C)(C)C1C(=O)N[C@@H](C)C(=O)N[C@@H](CCC(=O)O)C(=O)N[C@@H](Cc1ccccc1)C(=O)O (some centres not stated)
64 | – | CC(C)C[C@H](NC(=O)[C@@H](NC(=O)[C@@H](N)CCC(=O)O)C(C)C)C(=O)N[C@@H](Cc1ccccc1)[C@@H](O)C(=O)N[C@@H](CCC(=O)O)C(=O)N[C@@H](C)C(=O)N[C@@H](CCC(=O)O)C(=O)N[C@@H](Cc1ccccc1)C(=O)O
78 | – | CC(C)C[C@H](NC(=O)[C@@H](NC(=O)[C@@H](N)CCC(=O)O)C(C)C)C(=O)N[C@@H](Cc1ccccc1)[C@@H](O)C(=O)N[C@@H](C)C(=O)N[C@@H](CCC(=O)O)C(=O)N[C@@H](CCC(=O)O)C(=O)N[C@@H](Cc1ccccc1)C(=O)O (H-EVL[β3hPhe(2R-OH)]AEEF-OH)
> 90 | 413 | CC(C)C[C@H](NC(=O)[C@@H](NC(=O)[C@@H](N)CCC(=O)O)C(C)C)C(=O)N[C@@H](Cc1ccccc1)[C@@H](O)C(=O)N[C@@H](CC(=O)O)C(=O)N[C@@H](C)C(=O)N[C@@H](CCC(=O)O)C(=O)N[C@@H](Cc1ccccc1)C(=O)O [HGLUVALLEUPNSASPALAGLUPHEOH]
26 | – | CC[C@@H](C)[C@H](NC(=O)[C@@H](N)CCC(=O)O)C(=O)N[C@@H](CC(C)C)C(=O)N[C@@H](Cc1ccccc1)[C@@H](O)C(=O)N[C@@H](CC(=O)O)C(=O)N[C@@H](C)C(=O)N[C@@H](CCC(=O)O)C(=O)N[C@@H](Cc1ccccc1)C(=O)O
< 20 | – | CC(C)C[C@H](NC(=O)[C@H](Cc1ccccc1)NC(=O)[C@@H](N)CCC(=O)O)C(=O)N[C@@H](Cc1ccccc1)[C@@H](O)C(=O)N[C@@H](CC(=O)O)C(=O)N[C@@H](C)C(=O)N[C@@H](CCC(=O)O)C(=O)N[C@@H](Cc1ccccc1)C(=O)O (H-EFL[β3hPhe(2R-OH)]DAEF-OH)
66 | – | CC(C)C[C@H](NC(=O)[C@@H](NC(=O)[C@@H](N)CCC(=O)O)C(C)C)C(=O)N[C@H](Cc1ccccc1)[C@@H](O)C(=O)N[C@@H](CC(=O)O)C(=O)N[C@@H](C)C(=O)N[C@@H](CCC(=O)O)C(=O)N[C@@H](Cc1ccccc1)C(=O)O
53 | – | CC(C)C[C@H](NC(=O)[C@@H](NC(=O)[C@@H](N)CCC(=O)O)C(C)C)C(=O)N[C@@H](Cc1ccccc1)[C@@H](O)C(=O)N[C@@H](C)C(=O)N[C@@H](C)C(=O)N[C@@H](CCC(=O)O)C(=O)N[C@@H](Cc1ccccc1)C(=O)O
60 | – | CC(C)C[C@H](NC(=O)[C@@H](NC(=O)[C@@H](N)CCC(=O)O)C(C)C)C(=O)N[C@@H](Cc1ccccc1)[C@@H](O)C(=O)N[C@@H](C)C(=O)N[C@@H](Cc1ccccc1)C(=O)N[C@@H](CCC(=O)O)C(=O)N[C@@H](Cc1ccccc1)C(=O)O (H-EVL[β3hPhe(2R-OH)]AFEF-OH)
47 | – | CC(C)C[C@H](NC(=O)[C@@H](NC(=O)[C@@H](N)CCC(=O)O)C(C)C)C(=O)N[C@H](Cc1ccccc1)[C@@H](O)C(=O)N[C@@H](CCC(=O)O)C(=O)N[C@@H](C)C(=O)N[C@@H](CCC(=O)O)C(=O)N[C@@H](Cc1ccccc1)C(=O)O
67 | – | CC(C)C[C@H](NC(=O)[C@@H](NC(=O)[C@@H](N)CCC(=O)O)C(C)C)C(=O)N[C@@H](Cc1ccccc1)[C@@H](O)C(=O)N[C@@H](CC(=O)O)C(=O)N[C@@H](C)C(=O)N[C@@H](Cc1ccccc1)C(=O)N[C@@H](Cc1ccccc1)C(=O)O (H-EVL[β3hPhe(2R-OH)]DAFF-OH)
